Laboratory results: the NIST ThermoML archive (doi:10.1016/j.tca.2012.07.004)

Assay: xn = mol fraction of the nth substance listed
Conditions: 101 kPa, Liquid; for mass density: Vibrating tube method; for viscosity: Vibrating wire viscometry; for speed of sound: ultrasonic interferometer

CC(=O)[O-].C[NH+](C)C [trimethylammonium acetate] + CN1CCCC1=O
Conditions | mass density [kg/m3] | speed of sound [m/s] | viscosity [mPa·s]
298.15 K, x1 = 0.0182 | 1028.63 | 1571 | 2.04
298.15 K, x1 = 0.0369 | 1030.53 | 1575 | 2.28
298.15 K, x1 = 0.0987 | 1036.87 | 1578 | 3.04
298.15 K, x1 = 0.1401 | 1039.96 | 1581 | 3.42
298.15 K, x1 = 0.2032 | 1043.65 | 1586 | 3.89
298.15 K, x1 = 0.3166 | 1047.89 | 1584 | 4.5
298.15 K, x1 = 0.3637 | 1048.9 | 1582 | 4.56
298.15 K, x1 = 0.4353 | 1049.74 | 1580 | 4.61
298.15 K, x1 = 0.5625 | 1049.92 | 1571 | 4.52
298.15 K, x1 = 0.6999 | 1049.74 | 1559 | 4.23
298.15 K, x1 = 0.8435 | 1050.4 | 1550 | 3.7
298.15 K, x1 = 0.936 | 1051.83 | 1544 | 3.27
298.15 K, x1 = 0.9675 | 1052.54 | 1543 | 3.02
298.15 K, x1 = 1 | 1053.85 | 1544 | 2.76
303.15 K, x1 = 0.0182 | 1026.1 | 1556 | 1.64
303.15 K, x1 = 0.0369 | 1027.79 | 1560 | 1.86
303.15 K, x1 = 0.0987 | 1033.52 | 1565 | 2.56
303.15 K, x1 = 0.1401 | 1036.31 | 1568 | 3
303.15 K, x1 = 0.2032 | 1039.76 | 1572 | 3.48
303.15 K, x1 = 0.3166 | 1043.59 | 1569 | 4.05
303.15 K, x1 = 0.3637 | 1044.52 | 1566 | 4.11
303.15 K, x1 = 0.4353 | 1045.32 | 1564 | 4.16
303.15 K, x1 = 0.5625 | 1045.54 | 1551 | 4.01
303.15 K, x1 = 0.6999 | 1045.69 | 1537 | 3.64
303.15 K, x1 = 0.8435 | 1046.54 | 1524 | 3.14
303.15 K, x1 = 0.936 | 1048.22 | 1517 | 2.78
303.15 K, x1 = 0.9675 | 1048.93 | 1515 | 2.52
303.15 K, x1 = 1 | 1049.87 | 1514 | 2.37
308.15 K, x1 = 0.0182 | 1021.24 | 1534 | 1.43
308.15 K, x1 = 0.0369 | 1023.08 | 1540 | 1.57
308.15 K, x1 = 0.0987 | 1028.14 | 1546 | 2.23
308.15 K, x1 = 0.1401 | 1030.79 | 1550 | 2.64
308.15 K, x1 = 0.2032 | 1034.23 | 1555 | 3.14
308.15 K, x1 = 0.3166 | 1037.97 | 1554 | 3.7
308.15 K, x1 = 0.3637 | 1039.05 | 1553 | 3.76
308.15 K, x1 = 0.4353 | 1039.98 | 1551 | 3.77
308.15 K, x1 = 0.5625 | 1040.55 | 1540 | 3.52
308.15 K, x1 = 0.6999 | 1040.85 | 1530 | 3.12
308.15 K, x1 = 0.8435 | 1042 | 1519 | 2.64
308.15 K, x1 = 0.936 | 1043.81 | 1512 | 2.34
308.15 K, x1 = 0.9675 | 1044.69 | 1511 | 2.16
308.15 K, x1 = 1 | 1045.81 | 1508 | 2.06
313.15 K, x1 = 0.0182 | 1016.53 | 1528 | 1.52
313.15 K, x1 = 0.0369 | 1017.98 | 1533 | 1.38
313.15 K, x1 = 0.0987 | 1023.07 | 1538 | 1.96
313.15 K, x1 = 0.1401 | 1025.67 | 1542 | 2.39
313.15 K, x1 = 0.2032 | 1029.09 | 1546 | 2.81
313.15 K, x1 = 0.3166 | 1032.81 | 1544 | 3.37
313.15 K, x1 = 0.3637 | 1033.73 | 1543 | 3.41
313.15 K, x1 = 0.4353 | 1034.71 | 1540 | 3.42
313.15 K, x1 = 0.5625 | 1035.21 | 1528 | 3.16
313.15 K, x1 = 0.6999 | 1035.7 | 1517 | 2.74
313.15 K, x1 = 0.8435 | 1037.36 | 1508 | 2.25
313.15 K, x1 = 0.936 | 1039.26 | 1502 | 2.04
313.15 K, x1 = 0.9675 | 1040.35 | 1496 | 1.92
313.15 K, x1 = 1 | 1041.7 | 1490 | 1.83
